From the NIST ThermoML archive (doi:10.1021/je0501843)
Where “and” joins values, the source holds several entries; their conditions need not be identical. Equal entries are not always repeated.

Experiment: molar heat capacity at constant volume
Details: Fluid (supercritical or subcritical phases), Vacuum adiabatic calorimetry

FC(F)C(F)(F)F [pentafluoroethane]
Details	molar heat capacity at constant volume
350 K, Mass density=585.7 kg/m3	121.87 J/K/mol and 115.26 J/K/mol
350 K, Mass density=688.6 kg/m3	121.82 J/K/mol
350 K, Mass density=774 kg/m3	115.87 J/K/mol
350 K, Mass density=882.7 kg/m3	111.2 J/K/mol
350 K, Mass density=975 kg/m3	106.81 J/K/mol and 108.22 J/K/mol
350 K, Mass density=1076.5 kg/m3	105.51 J/K/mol and 105.75 J/K/mol
351 K, Mass density=403.4 kg/m3	114.03 J/K/mol
351 K, Mass density=503 kg/m3	115.42 J/K/mol
351 K, Mass density=585.7 kg/m3	123.23 J/K/mol and 114 J/K/mol
351 K, Mass density=688.6 kg/m3	119.91 J/K/mol
351 K, Mass density=773.9 kg/m3	114.06 J/K/mol
351 K, Mass density=882.7 kg/m3	110.25 J/K/mol
351 K, Mass density=974.9 kg/m3	106.01 J/K/mol and 107.36 J/K/mol
351 K, Mass density=1076.4 kg/m3	105.26 J/K/mol and 105.57 J/K/mol
352 K, Mass density=403.5 kg/m3	110.23 J/K/mol
352 K, Mass density=503 kg/m3	114.08 J/K/mol
352 K, Mass density=585.7 kg/m3	123.57 J/K/mol and 113.02 J/K/mol
352 K, Mass density=688.6 kg/m3	117.02 J/K/mol
352 K, Mass density=773.9 kg/m3	113.16 J/K/mol
352 K, Mass density=882.6 kg/m3	108.96 J/K/mol
352 K, Mass density=974.8 kg/m3	106.96 J/K/mol and 107.86 J/K/mol
352 K, Mass density=1076.3 kg/m3	105.75 J/K/mol and 105.23 J/K/mol
353 K, Mass density=403.5 kg/m3	109.29 J/K/mol
353 K, Mass density=503 kg/m3	114.32 J/K/mol
353 K, Mass density=585.7 kg/m3	120.99 J/K/mol and 113.07 J/K/mol
353 K, Mass density=688.5 kg/m3	116.8 J/K/mol
353 K, Mass density=773.8 kg/m3	113.56 J/K/mol
353 K, Mass density=882.5 kg/m3	110.9 J/K/mol
353 K, Mass density=974.7 kg/m3	107.31 J/K/mol and 108.33 J/K/mol
353 K, Mass density=1076.2 kg/m3	106.21 J/K/mol and 105.67 J/K/mol
354 K, Mass density=403.6 kg/m3	113.22 J/K/mol
354 K, Mass density=503 kg/m3	115.36 J/K/mol
354 K, Mass density=585.7 kg/m3	119.21 J/K/mol and 111.24 J/K/mol
354 K, Mass density=688.5 kg/m3	117.18 J/K/mol
354 K, Mass density=773.8 kg/m3	113.7 J/K/mol
354 K, Mass density=882.5 kg/m3	112.32 J/K/mol
354 K, Mass density=974.6 kg/m3	107.07 J/K/mol and 107.84 J/K/mol
354 K, Mass density=1076.1 kg/m3	105.5 J/K/mol and 106.64 J/K/mol
355 K, Mass density=403.6 kg/m3	113.06 J/K/mol
355 K, Mass density=503 kg/m3	114.26 J/K/mol
355 K, Mass density=585.7 kg/m3	121.17 J/K/mol and 110.25 J/K/mol
355 K, Mass density=688.5 kg/m3	116.52 J/K/mol
355 K, Mass density=773.7 kg/m3	113.14 J/K/mol
355 K, Mass density=882.4 kg/m3	110.04 J/K/mol
355 K, Mass density=974.6 kg/m3	106.63 J/K/mol and 107.29 J/K/mol
355 K, Mass density=1076 kg/m3	104.47 J/K/mol and 105.31 J/K/mol
356 K, Mass density=403.6 kg/m3	111.13 J/K/mol
356 K, Mass density=503 kg/m3	114 J/K/mol
356 K, Mass density=585.7 kg/m3	121.39 J/K/mol and 110.52 J/K/mol
356 K, Mass density=688.4 kg/m3	115.44 J/K/mol
356 K, Mass density=773.7 kg/m3	112.56 J/K/mol
356 K, Mass density=882.4 kg/m3	109.83 J/K/mol
356 K, Mass density=974.5 kg/m3	106.76 J/K/mol and 106.98 J/K/mol
356 K, Mass density=1075.9 kg/m3	105.59 J/K/mol and 105.04 J/K/mol
357 K, Mass density=403.6 kg/m3	111.14 J/K/mol
357 K, Mass density=503 kg/m3	114.3 J/K/mol
357 K, Mass density=585.6 kg/m3	111.96 J/K/mol
357 K, Mass density=585.7 kg/m3	119.54 J/K/mol
357 K, Mass density=688.4 kg/m3	115.72 J/K/mol
357 K, Mass density=773.7 kg/m3	114.08 J/K/mol
357 K, Mass density=882.3 kg/m3	111.13 J/K/mol
357 K, Mass density=974.4 kg/m3	107.52 J/K/mol and 108.27 J/K/mol
357 K, Mass density=1075.8 kg/m3	106.52 J/K/mol and 106.05 J/K/mol
358 K, Mass density=403.6 kg/m3	111.56 J/K/mol
358 K, Mass density=503 kg/m3	112.47 J/K/mol
358 K, Mass density=585.6 kg/m3	118.73 J/K/mol and 110.52 J/K/mol
358 K, Mass density=688.4 kg/m3	115.42 J/K/mol
358 K, Mass density=773.6 kg/m3	113.91 J/K/mol
358 K, Mass density=882.2 kg/m3	110.62 J/K/mol
358 K, Mass density=974.3 kg/m3	107.37 J/K/mol and 108.93 J/K/mol
358 K, Mass density=1075.7 kg/m3	105.71 J/K/mol and 106.8 J/K/mol
359 K, Mass density=403.6 kg/m3	112.17 J/K/mol
359 K, Mass density=503 kg/m3	112.71 J/K/mol
359 K, Mass density=585.6 kg/m3	120.73 J/K/mol and 110.01 J/K/mol
359 K, Mass density=688.3 kg/m3	114.6 J/K/mol
359 K, Mass density=773.6 kg/m3	112.66 J/K/mol
359 K, Mass density=882.2 kg/m3	109.41 J/K/mol
359 K, Mass density=974.3 kg/m3	106.84 J/K/mol and 107.68 J/K/mol
359 K, Mass density=1075.6 kg/m3	105.11 J/K/mol and 106.04 J/K/mol
360 K, Mass density=403.6 kg/m3	111.06 J/K/mol
360 K, Mass density=503 kg/m3	113.85 J/K/mol
360 K, Mass density=585.6 kg/m3	119.64 J/K/mol and 111.46 J/K/mol
360 K, Mass density=688.3 kg/m3	115.44 J/K/mol
360 K, Mass density=773.5 kg/m3	113.01 J/K/mol
360 K, Mass density=882.1 kg/m3	109.1 J/K/mol
360 K, Mass density=974.2 kg/m3	106.66 J/K/mol and 107.71 J/K/mol
360 K, Mass density=1075.5 kg/m3	106.19 J/K/mol and 105.87 J/K/mol
361 K, Mass density=403.6 kg/m3	110.42 J/K/mol
361 K, Mass density=503 kg/m3	112.26 J/K/mol
361 K, Mass density=585.6 kg/m3	116.41 J/K/mol and 111.57 J/K/mol
361 K, Mass density=688.3 kg/m3	115.6 J/K/mol
361 K, Mass density=773.5 kg/m3	113.86 J/K/mol
361 K, Mass density=882.1 kg/m3	110.89 J/K/mol
361 K, Mass density=974.1 kg/m3	107.11 J/K/mol and 108.37 J/K/mol
361 K, Mass density=1075.4 kg/m3	106.59 J/K/mol
362 K, Mass density=403.6 kg/m3	109.78 J/K/mol
362 K, Mass density=503 kg/m3	111.4 J/K/mol
362 K, Mass density=585.6 kg/m3	117.98 J/K/mol and 110.73 J/K/mol
362 K, Mass density=688.2 kg/m3	115.95 J/K/mol
362 K, Mass density=773.4 kg/m3	112.71 J/K/mol
362 K, Mass density=882 kg/m3	110.8 J/K/mol
362 K, Mass density=974 kg/m3	107.3 J/K/mol and 108.22 J/K/mol
362 K, Mass density=1075.3 kg/m3	106.09 J/K/mol
363 K, Mass density=403.6 kg/m3	109.94 J/K/mol
363 K, Mass density=503 kg/m3	114.16 J/K/mol
363 K, Mass density=585.5 kg/m3	120.74 J/K/mol and 110.36 J/K/mol
363 K, Mass density=688.2 kg/m3	116.44 J/K/mol
363 K, Mass density=773.4 kg/m3	110.53 J/K/mol
363 K, Mass density=881.9 kg/m3	110.61 J/K/mol
363 K, Mass density=974 kg/m3	106.41 J/K/mol and 108.02 J/K/mol
363 K, Mass density=1075.2 kg/m3	106.37 J/K/mol
364 K, Mass density=403.6 kg/m3	111.1 J/K/mol
364 K, Mass density=503 kg/m3	113.42 J/K/mol
364 K, Mass density=585.5 kg/m3	119.4 J/K/mol and 109.88 J/K/mol
364 K, Mass density=688.2 kg/m3	114.69 J/K/mol
364 K, Mass density=773.3 kg/m3	110.71 J/K/mol
364 K, Mass density=881.9 kg/m3	110.79 J/K/mol
364 K, Mass density=973.9 kg/m3	106.7 J/K/mol and 108.1 J/K/mol
364 K, Mass density=1075.1 kg/m3	106.31 J/K/mol
365 K, Mass density=403.6 kg/m3	108.67 J/K/mol
365 K, Mass density=503 kg/m3	111.49 J/K/mol
365 K, Mass density=585.5 kg/m3	117.96 J/K/mol and 110.02 J/K/mol
365 K, Mass density=688.1 kg/m3	115.26 J/K/mol
